{"source": "patent USRE48461E1", "about": "“Modulation of androgen receptor expression” (Ionis Pharmaceuticals, Inc., priority 2012, dated 2021)", "key": {"[1]": {"system": "KLK2 mRNA", "experiment": "KLK2 mRNA (AR target gene) in C4-2B MR cells", "format": "cell-based, human"}, "[2]": {"system": "LMR20 cells", "experiment": "Proliferation of MDV3100-resistant LMR20 cells (MTT; with R1881 or DHT)", "format": "cell-based, human", "conditions": "5 days", "experimental": "LMR20 cells were plated at 1,500 cells per well in phenol red-free medium with charcoal-stripped fetal bovine serum (CSS), to remove any androgens from the medium (Life Technologies). […] The synthetic androgen agonist, R1881, (Takeda, A. N. et al., Mol. Pharmacol. 2007. 71: 473-82) was added on day 1 at 1 nM dose to a set of cells also treated with each of the antisense oligonucleotides. DHT was added on day 1 at a dose of 10 nM to another set of cells also treated with each of the antisense oligonucleotides. […] After a treatment period of 5 days, the proliferative ability of the cancer cells was measured by the standard MTT assay. Results are presented in Table 42 as percent inhibition of proliferation, relative to non-treated cells."}}, "note": "Oligonucleotides are written 5' to 3', each unit as a sugar letter and its base; * is a phosphorothioate linkage, no mark a phosphodiester; rarer units and linkages stand in square brackets, end groups in braces. Plain capitals give the bases only. k = constrained ethyl (cEt); [5mC] = 5-methylcytosine; d = 2'-deoxy (DNA)", "data": [{"substance": "549372 (kA*kA*kG*dT*dT*dG*dT*dA*dG*dT*dA*dG*dT*k[5mC]*kG*k[5mC]) [compound 549372]", "values": [{"measurement": "Percent inhibition of KLK2 mRNA in C4-2B MR cells", "setting": "[1]; 0.04 μM", "value": 14, "unit": "%"}, {"measurement": "Percent inhibition of KLK2 mRNA in C4-2B MR cells", "setting": "[1]; 0.20 μM", "value": 16, "unit": "%"}, {"measurement": "Percent inhibition of KLK2 mRNA in C4-2B MR cells", "setting": "[1]; 1.00 μM", "value": 57, "unit": "%"}, {"measurement": "Percent inhibition of KLK2 mRNA in C4-2B MR cells", "setting": "[1]; 5.00 μM", "value": 87, "unit": "%"}]}, {"substance": "549458 (kG*kT*kT*dG*dA*dT*dT*dT*dA*dA*dT*dG*dG*kT*kT*kG) [compound 549458]", "values": [{"measurement": "Percent inhibition of KLK2 mRNA in C4-2B MR cells", "setting": "[1]; 0.04 μM", "value": 35, "unit": "%"}, {"measurement": "Percent inhibition of KLK2 mRNA in C4-2B MR cells", "setting": "[1]; 0.20 μM", "value": 47, "unit": "%"}, {"measurement": "Percent inhibition of KLK2 mRNA in C4-2B MR cells", "setting": "[1]; 1.00 μM", "value": 87, "unit": "%"}, {"measurement": "Percent inhibition of KLK2 mRNA in C4-2B MR cells", "setting": "[1]; 5.00 μM", "value": 93, "unit": "%"}]}, {"substance": "GTTGATTTAATGGTTG (all phosphorothioate, sugars by position not given here; further chemistry not fully specified) [ISIS 549458]", "values": [{"measurement": "Percent inhibition of LMR20 cell proliferation", "setting": "[2]; CSS + DHT, ASO 0.04 μM", "value": 0, "unit": "%"}, {"measurement": "Percent inhibition of LMR20 cell proliferation", "setting": "[2]; CSS + DHT, ASO 0.20 μM", "value": 25, "unit": "%"}, {"measurement": "Percent inhibition of LMR20 cell proliferation", "setting": "[2]; CSS + DHT, ASO 1.0 μM", "value": 60, "unit": "%"}, {"measurement": "Percent inhibition of LMR20 cell proliferation", "setting": "[2]; CSS + DHT, ASO 5.0 μM", "value": 70, "unit": "%"}, {"measurement": "Percent inhibition of LMR20 cell proliferation", "setting": "[2]; CSS + R1881, ASO 0.04 μM", "value": 0, "unit": "%"}, {"measurement": "Percent inhibition of LMR20 cell proliferation", "setting": "[2]; CSS + R1881, ASO 0.20 μM", "value": 22, "unit": "%"}, {"measurement": "Percent inhibition of LMR20 cell proliferation", "setting": "[2]; CSS + R1881, ASO 1.0 μM", "value": 59, "unit": "%"}, {"measurement": "Percent inhibition of LMR20 cell proliferation", "setting": "[2]; CSS + R1881, ASO 5.0 μM", "value": 74, "unit": "%"}, {"measurement": "Percent inhibition of LMR20 cell proliferation", "setting": "[2]; CSS, ASO 0.04 μM", "value": 0, "unit": "%"}, {"measurement": "Percent inhibition of LMR20 cell proliferation", "setting": "[2]; CSS, ASO 0.20 μM", "value": 0, "unit": "%"}, {"measurement": "Percent inhibition of LMR20 cell proliferation", "setting": "[2]; CSS, ASO 1.0 μM", "value": 0, "unit": "%"}, {"measurement": "Percent inhibition of LMR20 cell proliferation", "setting": "[2]; CSS, ASO 5.0 μM", "value": 5, "unit": "%"}, {"measurement": "LMR20 cell proliferation", "setting": "[2]; in the presence of R1881 or DHT, 0.04-5.0 μM", "value": "significantly inhibited MDV3100-resistant prostate cancer cell proliferation in a dose dependent manner more extensively than ISIS 554221"}, {"measurement": "AR target gene KLK2 mRNA levels", "setting": "[1]; C4-2B MR cells, 0.04-5.00 μM", "value": "reduced target gene levels in a dose dependent manner more extensively than treatment with ISIS 554221"}]}]}
